Assay results reported in PubChem BioAssay (NCI).
Values joined by “and” are separate entries in the source; they are usually repeats but may differ in a detail not shown here. Equal values may be shown once.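 48-hour exposure; five concentrations; linearly interpolated endpoints. Abbreviation: GI50, concentration required for 50% inhibition of growth. TGI is the concentration that stops growth completely.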

Tests used:
Assay in all cases: NCI tumour cell line growth inhibition, 48 h
DMS 114 small cell lung = tested on: DMS 114 small cell lung
KM20L2 colon = tested on: KM20L2 colon
SNB-78 CNS = tested on: SNB-78 CNS
P388/ADR leukemia = tested on: P388/ADR leukemia
RXF-631 renal = tested on: RXF-631 renal
SN12K1 renal = tested on: SN12K1 renal
XF 498 CNS = tested on: XF 498 CNS
DMS 273 small cell lung = tested on: DMS 273 small cell lung
P388 leukemia = tested on: P388 leukemia
HOP-18 NSCLC = tested on: HOP-18 NSCLC
LXFL 529 NSCLC = tested on: LXFL 529 NSCLC
DLD-1 colon = tested on: DLD-1 colon

## CC[C@@]1(O)C(=O)OCc2c1cc1n(c2=O)Cc2cc3c(CN(C)C)c(O)ccc3nc2-1
DMS 114 small cell lung
  GI50: < 35.1 nM
  TGI: 0.691 µM and 0.162 µM
KM20L2 colon
  GI50: 2220 nM
  TGI: 8.27 µM
SNB-78 CNS
  GI50: 86.7 nM
  TGI: 2.49 µM
P388/ADR leukemia
  TGI: 2770 nM
RXF-631 renal
  TGI: 30.1 µM
SN12K1 renal
  TGI: 1190 nM
XF 498 CNS
  GI50: 585 nM
DMS 273 small cell lung
  GI50: 37.2 nM
  TGI: 1.09 µM and 0.609 µM
P388 leukemia
  TGI: 2660 nM
HOP-18 NSCLC
  GI50: 132 nM
  TGI: 89 µM

## Cc1cc(N(CCC#N)CCC#N)ccc1/C=C1N=C(/C=C/c2ccccc2)N(c2ccc(S(N)(=O)=O)cc2)C\1=O
DMS 114 small cell lung
  TGI: > 100 µM
KM20L2 colon
  TGI: > 100 µM
SNB-78 CNS
  TGI: > 100 µM
LXFL 529 NSCLC
  TGI: > 100 µM
RXF-631 renal
  TGI: > 100 µM
DLD-1 colon
  TGI: > 100 µM

## O=S1(=O)OCCOS(=O)(=O)C1(Cl)Cl
DMS 114 small cell lung
  TGI: > 100 µM
SNB-78 CNS
  TGI: > 100 µM
LXFL 529 NSCLC
  TGI: > 100 µM
RXF-631 renal
  TGI: > 100 µM
XF 498 CNS
  TGI: > 100 µM
DMS 273 small cell lung
  TGI: > 100 µM
DLD-1 colon
  TGI: > 100 µM

## CC1OC(OC2C(OC(=O)[C@]34CCC(C)(C)CC3C3=CCC5[C@@]6(C)C[C@H](O)[C@H](OC7OC(COC8OC(CO)C(O)C(O)C8O)C(O)C(O)C7O)[C@@](C)(C(=O)O)C6CC[C@@]5(C)C3(C)CC4)OCC(O)C2O)C(O)C(O)C1OC1OCC(O)C(O)C1O (some centres not stated)
DMS 114 small cell lung
  TGI: > 100 µM
KM20L2 colon
  TGI: > 100 µM
SNB-78 CNS
  TGI: > 100 µM
DMS 273 small cell lung
  TGI: > 100 µM
DLD-1 colon
  TGI: > 100 µM
HOP-18 NSCLC
  TGI: > 100 µM

## O=C1C(Cl)=C(N2CCN(CCOCCO)CC2)C(=O)c2ccccc21
KM20L2 colon
  TGI: 32.2 µM
SNB-78 CNS
  TGI: 32.3 µM
LXFL 529 NSCLC
  TGI: 3.37 µM
XF 498 CNS
  TGI: 5.81 µM
DMS 273 small cell lung
  TGI: 31.2 µM
HOP-18 NSCLC
  TGI: 29.9 µM

## O=C(CSc1nnc(Cc2ccccc2)o1)Nc1ccc(Cl)cc1[N+](=O)[O-]
KM20L2 colon
  TGI: 45.9 µM
SNB-78 CNS
  TGI: 47.6 µM
LXFL 529 NSCLC
  TGI: 40.8 µM
XF 498 CNS
  TGI: 31.3 µM
DMS 273 small cell lung
  TGI: 33.9 µM
HOP-18 NSCLC
  TGI: 28.3 µM

## C=CCOC1CC(n2cnc3c(N)ncnc32)OC1CO (configuration not stated)
DMS 114 small cell lung
  TGI: > 100 µM
KM20L2 colon
  TGI: > 100 µM
LXFL 529 NSCLC
  TGI: > 100 µM
XF 498 CNS
  TGI: > 100 µM
DMS 273 small cell lung
  TGI: > 100 µM
DLD-1 colon
  TGI: > 100 µM
